Data published in PMC10559933 (The Prostate, 2023).
Values joined by “and” are separate entries in the source; they are usually repeats but may differ in a detail not shown here. Equal values may be shown once. Read-outs that look alike come from different tables or passages of the source. Blank lines part the entries; values can stand above or below the compound they belong to.

Tests used:
[1] = target: fl-HDAC4 (Homo sapiens, UniProt P56524); assay: HDAC4 enzymatic assay with Lys; format: biochemical; conditions: Lys(TFA)-AMC substrate
Chain of fl-HDAC4 (P56524 whole entry): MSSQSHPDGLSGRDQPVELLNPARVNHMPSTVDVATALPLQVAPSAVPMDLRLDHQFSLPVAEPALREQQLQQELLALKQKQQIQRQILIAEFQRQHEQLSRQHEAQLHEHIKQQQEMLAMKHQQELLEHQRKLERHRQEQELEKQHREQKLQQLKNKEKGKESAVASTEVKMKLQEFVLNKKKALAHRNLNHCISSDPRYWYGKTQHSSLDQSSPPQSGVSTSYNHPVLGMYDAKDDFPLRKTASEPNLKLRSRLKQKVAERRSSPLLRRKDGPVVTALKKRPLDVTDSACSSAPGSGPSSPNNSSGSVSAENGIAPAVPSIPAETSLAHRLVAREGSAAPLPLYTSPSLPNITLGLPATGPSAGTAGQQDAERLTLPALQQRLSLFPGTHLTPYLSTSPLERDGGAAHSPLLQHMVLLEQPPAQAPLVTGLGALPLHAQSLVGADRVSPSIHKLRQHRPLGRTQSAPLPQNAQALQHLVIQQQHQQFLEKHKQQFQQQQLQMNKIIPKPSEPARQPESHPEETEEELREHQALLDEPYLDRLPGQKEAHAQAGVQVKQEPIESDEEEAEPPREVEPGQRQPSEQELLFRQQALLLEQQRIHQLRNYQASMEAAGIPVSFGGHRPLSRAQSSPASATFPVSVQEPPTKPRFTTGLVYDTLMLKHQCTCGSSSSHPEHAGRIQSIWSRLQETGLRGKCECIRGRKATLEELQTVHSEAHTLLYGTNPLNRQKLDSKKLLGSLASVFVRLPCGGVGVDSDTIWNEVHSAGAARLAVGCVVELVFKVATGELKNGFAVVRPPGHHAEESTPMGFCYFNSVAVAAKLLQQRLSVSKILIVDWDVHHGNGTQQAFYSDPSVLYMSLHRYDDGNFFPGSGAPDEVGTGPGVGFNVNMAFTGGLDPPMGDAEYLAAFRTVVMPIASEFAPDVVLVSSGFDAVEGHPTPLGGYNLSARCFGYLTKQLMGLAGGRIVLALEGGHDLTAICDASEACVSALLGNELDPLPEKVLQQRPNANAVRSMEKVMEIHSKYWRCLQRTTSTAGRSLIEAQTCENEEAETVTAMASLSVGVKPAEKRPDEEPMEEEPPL

[2] = target: immobilized fl-HDAC4 (Homo sapiens, UniProt P56524); assay: SPR: compound in solution binding to immobilized fl-HDAC4; conditions: at >30 μM in solution, Zn2+ present
Chain of immobilized fl-HDAC4 (P56524 whole entry): as above

[3] = cited from earlier work
[4] = system: thymus; assay: AHR agonist induced thymus regression in FVB male mice; format: in vivo; conditions: for thymus weight: oral 10 mg/kg/d for 14 days, vehicle 72 +/− 3 (>70)
[5] = system: LvCaP-3 human prostate cancer PDXs; assay: In vivo growth of LvCaP-3 PDX in castrate mice; parameters: species or system human xenograft in mice; conditions: oral 10 mg/kg/d
[6] = target: human AHR (Homo sapiens, UniProt P35869); assay: Photo-affinity label; conditions: competitive PAL AHR binding assay
[7] = target: T1, Human Aryl Hydrocarbon Receptor (AHR) (Homo sapiens, UniProt P35869); assay: Cell-based luciferase reporter gene assay driven by AHR-responsive promoter
T1 sequence (P35869 11-848): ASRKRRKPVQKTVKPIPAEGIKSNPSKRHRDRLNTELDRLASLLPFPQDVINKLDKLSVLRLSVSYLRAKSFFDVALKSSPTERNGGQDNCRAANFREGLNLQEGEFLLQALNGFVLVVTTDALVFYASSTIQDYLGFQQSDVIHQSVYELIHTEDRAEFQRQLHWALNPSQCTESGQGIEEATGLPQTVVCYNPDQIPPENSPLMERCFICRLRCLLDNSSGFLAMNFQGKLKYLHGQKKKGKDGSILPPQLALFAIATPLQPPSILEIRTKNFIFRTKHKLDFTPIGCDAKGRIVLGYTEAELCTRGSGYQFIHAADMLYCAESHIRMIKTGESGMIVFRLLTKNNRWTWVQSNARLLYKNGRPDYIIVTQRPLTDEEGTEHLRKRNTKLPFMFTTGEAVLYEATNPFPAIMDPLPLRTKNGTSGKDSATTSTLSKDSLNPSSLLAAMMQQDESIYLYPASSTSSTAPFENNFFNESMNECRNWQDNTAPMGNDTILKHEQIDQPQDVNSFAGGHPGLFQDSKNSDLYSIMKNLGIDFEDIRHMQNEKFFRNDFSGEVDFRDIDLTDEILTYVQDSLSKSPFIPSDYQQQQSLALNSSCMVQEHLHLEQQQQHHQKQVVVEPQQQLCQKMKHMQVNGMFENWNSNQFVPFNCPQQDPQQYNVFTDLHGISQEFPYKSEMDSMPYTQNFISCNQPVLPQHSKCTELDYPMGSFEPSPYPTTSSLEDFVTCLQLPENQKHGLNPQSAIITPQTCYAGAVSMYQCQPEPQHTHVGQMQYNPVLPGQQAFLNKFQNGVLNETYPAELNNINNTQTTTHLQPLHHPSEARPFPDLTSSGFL

[8] = system: CWR22-RH human prostate cancer PDXs; assay: In vivo growth of CWR22-RH PDX in castrate NSG mice; parameters: species or system human xenograft in NSG mice
[9] = Serum pharmacokinetics after oral gavage in mice; format: in vivo
[10] = system: liver Cyp1a1; assay: Liver Cyp1a1 induction in mice; format: in vivo
[11] = target: nuclear MEF2/HDAC4/NCoR1 (Homo sapiens, UniProt P56524); assay: Nuclear NCoR1 immunoprecipitated with MEF-2 in CWR-22Rv1 cells under hypoxia; format: cell-based; conditions: discussion summary
Chain of nuclear MEF2/HDAC4/NCoR1 (P56524 whole entry): as the sequence (P56524 whole entry) above

[12] = system: 68 kinases; assay: Targeted kinase screen; format: biochemical; conditions: 10 μM
[13] = Water solubility; format: physicochemical
[14] = system: LNCaP cells; assay: In vitro growth of LNCaP parental vs HDAC4 KD cells, normoxia vs hypoxia; format: cell-based, human; conditions: TasQ 10 μM
[15] = target: fl-NCoR1 protein (Homo sapiens, UniProt O75376); assay: SPR: TasQ in solution binding to immobilized fl-NCoR1
Chain of fl-NCoR1 protein (O75376 whole entry): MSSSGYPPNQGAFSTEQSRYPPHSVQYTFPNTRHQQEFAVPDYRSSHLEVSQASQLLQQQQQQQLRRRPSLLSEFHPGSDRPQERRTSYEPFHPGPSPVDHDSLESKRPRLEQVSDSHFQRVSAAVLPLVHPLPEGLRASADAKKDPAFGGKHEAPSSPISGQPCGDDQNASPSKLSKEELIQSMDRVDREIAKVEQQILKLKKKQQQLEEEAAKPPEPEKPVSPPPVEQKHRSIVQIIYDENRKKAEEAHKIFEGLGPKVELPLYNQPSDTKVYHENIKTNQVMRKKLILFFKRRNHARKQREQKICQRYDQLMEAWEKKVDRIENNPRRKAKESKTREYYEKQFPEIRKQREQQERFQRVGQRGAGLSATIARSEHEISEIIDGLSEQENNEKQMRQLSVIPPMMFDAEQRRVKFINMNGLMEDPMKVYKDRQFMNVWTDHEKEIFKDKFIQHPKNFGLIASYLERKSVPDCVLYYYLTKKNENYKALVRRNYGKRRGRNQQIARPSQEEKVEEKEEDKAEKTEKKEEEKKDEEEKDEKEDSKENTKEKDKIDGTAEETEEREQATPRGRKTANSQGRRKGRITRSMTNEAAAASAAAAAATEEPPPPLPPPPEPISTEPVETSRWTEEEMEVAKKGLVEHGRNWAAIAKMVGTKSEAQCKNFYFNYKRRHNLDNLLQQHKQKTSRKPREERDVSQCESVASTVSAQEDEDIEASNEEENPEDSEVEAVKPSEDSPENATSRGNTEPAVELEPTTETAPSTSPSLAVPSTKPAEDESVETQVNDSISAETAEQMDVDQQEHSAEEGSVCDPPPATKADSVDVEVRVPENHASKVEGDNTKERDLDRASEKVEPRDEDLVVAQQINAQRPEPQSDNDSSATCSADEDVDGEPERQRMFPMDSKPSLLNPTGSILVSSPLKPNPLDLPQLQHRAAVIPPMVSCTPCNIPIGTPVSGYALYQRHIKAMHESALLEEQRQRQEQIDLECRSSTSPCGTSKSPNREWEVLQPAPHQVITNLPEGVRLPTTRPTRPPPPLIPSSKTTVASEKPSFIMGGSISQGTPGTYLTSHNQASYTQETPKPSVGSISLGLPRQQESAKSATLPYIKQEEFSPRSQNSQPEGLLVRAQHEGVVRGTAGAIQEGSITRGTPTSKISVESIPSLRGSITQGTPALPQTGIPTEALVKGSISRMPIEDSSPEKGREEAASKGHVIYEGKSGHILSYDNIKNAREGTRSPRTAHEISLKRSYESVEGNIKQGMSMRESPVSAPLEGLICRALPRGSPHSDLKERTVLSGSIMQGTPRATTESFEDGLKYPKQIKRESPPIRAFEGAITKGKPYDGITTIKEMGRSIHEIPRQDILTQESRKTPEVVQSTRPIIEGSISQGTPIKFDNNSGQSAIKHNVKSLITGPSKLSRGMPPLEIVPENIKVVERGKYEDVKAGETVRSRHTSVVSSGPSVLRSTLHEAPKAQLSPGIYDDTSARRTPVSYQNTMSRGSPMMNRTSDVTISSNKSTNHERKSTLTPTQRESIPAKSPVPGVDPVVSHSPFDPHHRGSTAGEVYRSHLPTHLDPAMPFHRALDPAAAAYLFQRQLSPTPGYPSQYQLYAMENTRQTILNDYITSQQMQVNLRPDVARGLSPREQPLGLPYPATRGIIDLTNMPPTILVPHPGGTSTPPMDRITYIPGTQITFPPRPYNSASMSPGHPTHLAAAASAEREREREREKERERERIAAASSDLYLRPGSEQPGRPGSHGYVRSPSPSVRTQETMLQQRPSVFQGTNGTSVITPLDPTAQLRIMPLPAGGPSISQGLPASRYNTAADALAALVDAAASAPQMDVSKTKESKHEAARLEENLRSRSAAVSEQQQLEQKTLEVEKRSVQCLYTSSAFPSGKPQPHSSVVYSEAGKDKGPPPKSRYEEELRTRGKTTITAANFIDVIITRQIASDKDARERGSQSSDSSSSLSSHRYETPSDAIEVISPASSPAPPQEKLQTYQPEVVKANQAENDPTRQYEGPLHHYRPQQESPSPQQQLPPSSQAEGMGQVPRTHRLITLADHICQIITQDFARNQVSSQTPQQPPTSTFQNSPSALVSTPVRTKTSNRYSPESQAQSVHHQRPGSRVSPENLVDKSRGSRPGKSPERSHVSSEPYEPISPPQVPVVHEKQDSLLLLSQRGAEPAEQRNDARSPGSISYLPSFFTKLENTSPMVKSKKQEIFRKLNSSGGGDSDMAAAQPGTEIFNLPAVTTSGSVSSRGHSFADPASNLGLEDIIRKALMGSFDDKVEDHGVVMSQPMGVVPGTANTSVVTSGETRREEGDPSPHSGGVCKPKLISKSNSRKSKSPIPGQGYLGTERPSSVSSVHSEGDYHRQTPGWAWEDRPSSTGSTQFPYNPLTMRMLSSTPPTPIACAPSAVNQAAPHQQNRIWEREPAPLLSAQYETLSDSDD

[16] = target: fl-wild-type HDAC4 (Homo sapiens, UniProt P56524); assay: SPR competition: TasQ in solution vs immobilized TasQ for fl-wild-type HDAC4; format: binding
Chain of fl-wild-type HDAC4 (P56524 whole entry): as the sequence (P56524 whole entry) above

[17] = target: fl-R681A/R798A double mutant HDAC4 protein (Homo sapiens, UniProt P56524, R681A/R798A); assay: SPR competition: TasQ in solution vs immobilized TasQ for mutant HDAC4; format: binding
Chain of fl-R681A/R798A double mutant HDAC4 protein (P56524 whole entry R681A/R798A): as the sequence (P56524 whole entry) above, with R681A, R798A counted along it

[18] = system: human umbilical vein endothelial cells (HUVECs); assay: Three dimensional; format: cell-based; conditions: CM-supplemented 3D cultures, 10 μM
[19] = system: CWR-22Rv1 xenografts; format: in vivo, human xenograft in mice; conditions: oral 10 mg/kg/d
[20] = system: CWR22-RH PDXs; assay: RNA sequencing of in vivo growing CWR22-RH PDX; parameters: species or system human xenograft in mice; conditions: oral 10 mg/kg/d vs vehicle, castrate hosts
[21] = cited from earlier work; remark: listed apart in the source
[22] = system: metastatic castration-resistant prostate cancer (mCRPC); conditions: cited from earlier work
[23] = system: prostate cancer xenografts; conditions: oral 10 mg/kg/d, cited from earlier work
[24] = system: HIF-1α protein; conditions: daily oral 10 mg/kg/d; cited from earlier work
[25] = system: prostate cancer xenografts; conditions: cited from earlier work
[26] = phase 1B, TasQ combined with cabazitaxel, RECIST

- effect on enzymatic activity [1]: inhibited
Structure (SMILES): O=C(c1ccc(C(=O)C(F)(F)F)s1)N1CCn2c(-c3ccccc3)cnc2C1 [TFT-PIP]

- share of immobilized fl-HDAC4 protein bound [2]: 10–15%
Structure (SMILES): CN(C(=O)c1c(O)c2ccccc2n(C)c1=O)c1ccccc1 [Linomide, 4-hydroxy-N,1-dimethyl-2-oxo-N-phenyl-1,2-dihydroquinoline-3-carboxamide]
- side effects in phase III trials ([3]; chronic doses of ≤0.1 mg/kg): several cases of pericarditis and neuropathy

Structure (SMILES): c1ccc2c(c1)cc1ccc3cccc4ccc2c1c34 [B(a)P, benzo[a]pyrene]
- thymus weight [4]: 27 ± 8 mg
- therapeutic efficacy [5]: completely lacks therapeutic efficacy

Structure (SMILES): COc1cccc2c1c(O)c(C(=O)N(c1ccc(C(F)(F)F)cc1)C1CCCCC1)c(=O)n2C [ESATA-20]
- fold lower binding affinity than TasQ [6]: 10 fold
- fold lower AHR agonism than TasQ ([7]; cell-based AHR-promoter assay): 10 fold and ~ 10 fold
- EC50 ([7]; read-out: AHR agonist EC50, human cell-based luciferase reporter): 10000 nM
- anti-cancer efficacy ([8]; 10 mg/kg/d oral): same significant maximal anti-cancer efficacy as TasQ
- serum concentration at which maximal anti-prostate cancer efficacy is produced ([8]; in vivo): < 2 µM
- fold lower bioavailability than TasQ ([9]; 10 mg/kg oral, DMSO/HPCD vehicle): 5.5 fold
- alpha half-life for tissue distribution ([9]; mouse, in vivo): 3 h
- beta half-life for serum elimination ([9]; mouse, in vivo): 10 to 12 h
- drug bound to serum proteins ([9]; mouse, in vivo): > 98%
- thymus regression ([4]; oral, even at 30 mg/kg/d): lack of induction
- induction of liver Cyp1a1 ([10]; oral, even at 30 mg/kg/d): lack of induction
- fold more potent HDAC4 inhibitor (vs TasQ) [11]: ≥ 5 fold
- change in activity in any of the 68 kinases [12]: < 15%
- water solubility [13]: less water soluble than TasQ

Structure (SMILES): COc1cccc2c1c(O)c(C(=O)N(C)c1ccc(C(F)(F)F)cc1)c(=O)n2C [TasQ, 4-hydroxy-5-methoxy-N,1-dimethyl-2-oxo-N-[(4-trifluoromethyl)phenyl]-1,2-dihydroquinoline-3-caboxamide]
- EC50 [7]: 1000 nM
- effect on cells [14]: the cells die
- oral daily dose giving maximal significant growth inhibition ([8]; castrate NSG mice, 3-week treatment): ≥ 5 mg/kg/day
- thymus weight [4]: 41.6 ± 6 mg
- induction of liver Cyp1a1 ([10]; oral 10 mg/kg, alone and in combination with B(a)P): > 50 fold
- inhibition of growth at end of study (fraction) ([5]; alone or in combination with B(a)P): ~ 2/3
- binding to immobilized fl-NCoR1 [15]: no detectable binding
- effect on enzymatic activity [1]: did not inhibit
- EC50 [16]: 1000 nM
- displacement of mutant HDAC4 from immobilized TasQ [17]: not competitively displaced
- sprouting [18]: sprouting prevented
- growth inhibition ([19]; dominant-positive mutant HIF-1α tumors): < 25%
- growth inhibition ([19]; wild type cells): > 80%
- AGR2, AHR Target Genes (Fold Increases by TasQ) [20]: 5.5 fold
- AHR, AHR Target Genes (Fold Increases by TasQ) [20]: 3.0 fold
- ALDOC, HIF-1a Target Genes (Fold Decrease by TasQ) [20]: −1.4 fold
- AR, AR Target Genes (Fold Decrease by TasQ) [20]: −2.0 fold
- BNIP3, HIF-1a Target Genes (Fold Decrease by TasQ) [20]: −1.9 fold
- CDC6, Proliferation Target Genes (Fold Decrease by TasQ) [20]: −1.5 fold
- CDT1, Proliferation Target Genes (Fold Decrease by TasQ) [20]: −2.2 fold
- CYP1B1, AHR Target Genes (Fold Increases by TasQ) [20]: 10.0 fold
- DTYMK, Proliferation Target Genes (Fold Decrease by TasQ) [20]: −1.6 fold
- E2F1, Proliferation Target Genes (Fold Decrease by TasQ) [20]: −2.0 fold
- GDF15, AHR Target Genes (Fold Increases by TasQ) [20]: 2.3 fold
- HILPDA, HIF-1a Target Genes (Fold Decrease by TasQ) [20]: −1.7 fold
- IGF1, HIF-1a Target Genes (Fold Decrease by TasQ) [20]: −11.0 fold
- IGFBP2, HIF-1a Target Genes (Fold Decrease by TasQ) [20]: −1.8 fold
- IGFBP5, HIF-1a Target Genes (Fold Decrease by TasQ) [20]: −18.0 fold
- KLKP1, AR Target Genes (Fold Decrease by TasQ) [20]: −2.3 fold
- LDHA, HIF-1a Target Genes (Fold Decrease by TasQ) [20]: −1.5 fold
- LOX, HIF-1a Target Genes (Fold Decrease by TasQ) [20]: −4.0 fold
- MCM2, Proliferation Target Genes (Fold Decrease by TasQ) [20]: −1.9 fold
- MCM3, Proliferation Target Genes (Fold Decrease by TasQ) [20]: −1.6 fold
- MCM5, Proliferation Target Genes (Fold Decrease by TasQ) [20]: −2.0 fold
- MKI67, Proliferation Target Genes (Fold Decrease by TasQ) [20]: −1.7 fold
- NKX3.1, AR Target Genes (Fold Decrease by TasQ) [20]: −2.3 fold
- NQOI, AHR Target Genes (Fold Increases by TasQ) [20]: 2.9 fold
- P4HA1, HIF-1a Target Genes (Fold Decrease by TasQ) [20]: −1.8 fold
- PDK1, HIF-1a Target Genes (Fold Decrease by TasQ) [20]: −1.7 fold
- PTN, HIF-1a Target Genes (Fold Decrease by TasQ) [20]: −6.1 fold
- SLC45A3, AR Target Genes (Fold Decrease by TasQ) [20]: −3.7 fold
- TIPARP, AHR Target Genes (Fold Increases by TasQ) [20]: 3.4 fold
- TMPRSS2, AR Target Genes (Fold Decrease by TasQ) [20]: −1.9 fold
- TNC, HIF-1a Target Genes (Fold Decrease by TasQ) [20]: −2.5 fold
- TTR, HIF-1a Target Genes (Fold Decrease by TasQ) [20]: −3.8 fold
- VEGFB, HIF-1a Target Genes (Fold Decrease by TasQ) [20]: −1.5 fold
- BHLHE41, MEF-2 Target Genes (Fold Decrease by TasQ) ([20]; section title: upregulation): 2.9 fold
- CA12, MEF-2 Target Genes (Fold Decrease by TasQ) ([20]; section title: upregulation): 2.7 fold
- CAPN2, MEF-2 Target Genes (Fold Decrease by TasQ) ([20]; section title: upregulation): 1.6 fold
- CEACAM1, MEF-2 Target Genes (Fold Decrease by TasQ) ([20]; section title: upregulation): 1.8 fold
- EDN1, MEF-2 Target Genes (Fold Decrease by TasQ) ([20]; section title: upregulation): 15.0 fold
- NR4A1, MEF-2 Target Genes (Fold Decrease by TasQ) ([20]; section title: upregulation): 1.4 fold
- NR4A2, MEF-2 Target Genes (Fold Decrease by TasQ) ([20]; section title: upregulation): 1.8 fold
- S100P, MEF-2 Target Genes (Fold Decrease by TasQ) ([20]; section title: upregulation): 5.7 fold
- THB5, MEF-2 Target Genes (Fold Decrease by TasQ) ([20]; section title: upregulation): 8.0 fold
- serum nadir ([21]; oral 5 mg/kg/d, at 24 hrs): 1.08 ± 0.21 µM
- blood concentration maintained ([21]; oral 10 mg/kg/d): > 1000 nM
- patients with complete or partial response (CR/PR) [22, 26]: 12%
- patients with stable disease [22, 26]: 48%
- overall survival (OS) ([22]; phase III, 1 mg/day): not significantly enhanced
- reduction of risk of radiographic progression or death vs. placebo ([22]; phase III, daily oral): 36%
- improvement of median progression-free survival (PFS) ([22]; randomized phase II, mCRPC progressing on ADT): 4.3 months
- pO2 in the TME ([23]; lowered from >3 mmHg): 1.4 +/− 1.0 mmHg
- enhancement of hypoxia [23]: > 2 fold
- lowering of HIF-1α protein in tumors [24]: > 50%
- fold more potent compared to Linomide ([25]; based on serum drug level): ≥ 100 fold
- daily oral dosing required in mice [25]: > 5 mg/kg/day
- fold increase in anti-tumor efficacy compared to Linomide [25]: > 25 fold
- daily oral dosing required for maximal therapeutic activity ([25]; preclinical): ≥ 5 mg/kg
- serum concentration to be maintained for maximal therapeutic activity ([25]; preclinical): > 2 µM
- plasma concentration maintained ([3]; 0.5 mg/d): 230 ± 30 nM
- steady-state plasma level ([3]; 1 mg/day): 0.42 ± 0.05 µM
- MTD when combined with cabazitaxel and prednisone ([3]; phase 1B): 0.5 mg/day
- maximum tolerated dose (MTD) ([3]; phase I, oral, after dose escalation over 4–6 weeks): 1 mg/day
- dose-limiting toxicity ([3]; phase I): sinus tachycardia and asymptomatic elevation in amylase

Structure (SMILES): COC(=O)c1c(O)c2c(OC)cccc2n(C)c1=O [ESATA-2]
- growth inhibitor (GI) activity ([8]; oral 10 mg/kg/d over 3 weeks, castrate NSG mice): no GI activity
